The structures appear in SMILES notation.

For this assay, the target named is HIV-1 protease (Human immunodeficiency virus, UniProt O90785). Briefly: Fluorometric Assay. An excerpt: The Ki value were determine by a fluorometric assay with the fluorogenic and chromogenic substrate.
Chain of HIV-1 protease (O90785 whole entry): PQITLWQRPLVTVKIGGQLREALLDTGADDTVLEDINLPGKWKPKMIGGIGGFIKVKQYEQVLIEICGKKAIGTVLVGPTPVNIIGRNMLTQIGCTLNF
As a reminder, the IC50 is the concentration that gives 50% inhibition. Read a high IC50 as weaker potency in that assay. What is called Ki is a dissociation constant, usually derived from enzyme kinetics or from competition with a known ligand. Low values mean higher affinity, high ones lower affinity. Take `Cc1c(O)cccc1C(=O)N[C@@H](Cc1ccccc1)[C@@H](O)C[C@H](Cc1ccccc1)NC(=O)c1ccccc1` [3-Hexanol derivative, 1]: the concentration for half-maximal inhibition (IC50) came out at 1 nM and the inhibition constant (Ki) stood at 4.6 nM.
The molecule `Cc1ccccc1C(=O)N[C@@H](Cc1ccccc1)C[C@H](O)[C@H](Cc1ccccc1)NC(=O)c1ccccc1C` [3-Hexanol derivative, 2] registered a half-maximal inhibitory concentration (IC50) of 3 nM and an inhibition constant (Ki) of 4.8 nM.
`Cc1c(O)cccc1C(=O)N[C@@H](Cc1ccccc1)[C@@H](O)C[C@H](Cc1ccccc1)NC(=O)OC1CCOC1` (stereo partly drawn) [3-Hexanol derivative, 3]: the IC50 came to 0.63 nM and the Ki is 0.32 nM.
In the case of `CC(C)[C@@H](C(=O)N[C@@H](Cc1ccccc1)[C@@H](O)C[C@H](Cc1ccccc1)NC(=O)OC(C)(C)C)N(C)C(=O)OCc1ccccn1` [3-Hexanol derivative, 4], the IC50 came out at 0.17 nM and the inhibition constant (Ki) is 0.021 nM.

The values are drawn from BindingDB's records for doi:10.1111/j.1747-0285.2012.01328.x (Technical University of LÓDz, 2012).
